Results on 14 molecules are retold here after patent publication US20240165243A1, “EGFR DEGRADERS AND METHODS OF USE” (BeiGene Switzerland GmbH, priority 2021, published 2024).

The test system of the assay is EGFR (Del19/T790M/C797S). Kind of assay: Cell degradation HTRF assay, H1975-clone #28 cells. The format is cell-based. To be noted: H1975-clone #28 (Del19/T790M/C797S) cells, 16 h treatment; for DC50: HTRF, read-out: H1975-clone#28 DTC DC50; for H1975-clone#28 DTC Dmax (%): maximum percentage of degradation. As for the experimental part: Cell Degradation of Example 124-189
H1975-#28 and H1975-#25 cells are treated with compounds diluted in 0.2% DMSO cell culture medium on day 2, incubate for 16 h, 37° C., 5% CO2. the final concentration of compounds in all assay is start with 10 uM, 5-fold dilution, total 8 doses were included.
After 16 h treatment, add HTRF lysis buffer to each well; seal the plate and incubate 1 hour at room temperature on a plate shaker; Once the cells are lysed, 16 μL of cell lysate are transferred to a PE 384-well HTRF detection plate; 4 μL of pre-mixed HTRF antibodies are added to each well; Cover the plate with a plate sealer, spin 1000 rpm for 1 min, Incubate overnight at room temperature; Read on BMG PheraStar with HTRF protocol (337 nm-665 nm-620 nm).
The inhibition (degradation) percentage of the compound was calculated by the following equation:
Inhibition percentage of Compound=100−100×(Signal−low control)/(High control−low control), wherein signal=each test compound group.
High control=Cell group with added DMSO and without compound, indicating microplate readings without EGFR degradation;
Dmax is the maximum percentage of inhibition (degradation).
The IC50 (DC50) value of a compound can be obtained by fitting the following equation
Y=Bottom+(TOP−Bottom)/(1+((IC50/X)^hillslope))
Wherein, X and Y are known values, and IC50, Hillslope, Top and Bottom are the parameters obtained by fitting with software. Y is the inhibition percentage (calculated from the equation), X is the concentration of the compound; IC50 is the concentration of the compound when the 50% inhibition is reached. The smaller the IC50 value is, the stronger the inhibitory ability of the compound is. Vice versa, the higher the IC50 value is, the weaker the ability the inhibitory ability of the compound is; Hillslope represents the slope of the fitted curve, generally around 1*; Bottom represents the minimum value of the curve obtained by data fitting, which is generally 0%±20%; Top represents the maximum value of the curve obtained by data fitting, which is generally 100%±20%. The experimental data were fitted by calculating and analyzing with Dotmatics data analysis software. When Dmax<50%, DC50 will be automatically assigned as larger than […].
(In general: TR-FRET usually uses a lanthanide donor and a delayed reading to cut background.)

The term DC50 denotes the midpoint of the concentration-degradation curve. With `CCc1cc(Nc2ncc(Br)c(Nc3cnc4ccccc4c3P(C)(C)=O)n2)c(OCC(F)(F)F)cc1N1CCC(N2CCN(CCc3cc(F)c(C4CCC(=O)NC4=O)c(F)c3)CC2)CC1` (stereo not shown) [Example 187, 3-(4-(2-(4-(1-(4-((5-bromo-4-((4-(dimethylphosphoryl)quinolin-3-yl)amino)pyrimidin-2-yl)amino)-2-ethyl-5-(2,2,2-trifluoroethoxy)phenyl)piperidin-4-yl)piperazin-1-yl)ethyl)-2,6-difluorophenyl)piperidine-2,6-dione], the DC50 was determined as 3.3 nM and the “H1975-clone#28 DTC Dmax (%)” value turned out to be 69%.

Turning to `CCc1cc(Nc2ncc(Br)c(Nc3cnc4cc(F)ccc4c3P(C)(C)=O)n2)c(OC)cc1N1CCC(N2CCN(CCc3ccc4c(c3)oc(=O)n4C3CCC(=O)NC3=O)CC2)CC1` (stereo not shown) [Example 134, 3-(6-(2-(4-(1-(4-((5-bromo-4-((4-(dimethylphosphoryl)-7-fluoroquinolin-3-yl)amino)pyrimidin-2-yl)amino)-2-ethyl-5-methoxyphenyl)piperidin-4-yl)piperazin-1-yl)ethyl)-2-oxobenzo[d]oxazol-3(2H)-yl)piperidine-2,6-dione], the half-maximal degradation concentration (DC50) came to 0.8 nM and the “H1975-clone#28 DTC Dmax (%)” value was 79%.

Turning to `CCc1cc(Nc2ncc(Br)c(Nc3cnc4cc(F)ccc4c3P(C)(C)=O)n2)c(OC)cc1N1CCC(N2CCN(CCc3cc(F)c4c(c3)oc(=O)n4[C@H]3CCC(=O)NC3=O)CC2)CC1` [Example 151, (S)-3-(6-(2-(4-(1-(4-((5-bromo-4-((4-(dimethylphosphoryl)-7-fluoroquinolin-3-yl)amino)pyrimidin-2-yl)amino)-2-ethyl-5-methoxyphenyl)piperidin-4-yl)piperazin-1-yl)ethyl)-4-fluoro-2-oxobenzo[d]oxazol-3(2H)-yl)piperidine-2,6-dione], the DC50 stood at 1.1 nM and the “H1975-clone#28 DTC Dmax (%)” value was determined as 79%.

As for `CCc1cc(Nc2ncc(Br)c(Nc3cnc4ccccc4c3P(C)(C)=O)n2)c(OC)cc1N1CCC(N2CCN(C(=O)[C@H]3CCN(c4ccc5c(c4)C(C)(C)C(=O)N5C4CCC(=O)NC4=O)C3)CC2)CC1` (stereo partly drawn) [Example 168, 3-(5-((S)-3-(4-(1-(4-((5-bromo-4-((4-(dimethylphosphoryl)quinolin-3-yl)amino)pyrimidin-2-yl)amino)-2-ethyl-5-methoxyphenyl)piperidin-4-yl)piperazine-1-carbonyl)pyrrolidin-1-yl)-3,3-dimethyl-2-oxoindolin-1-yl)piperidine-2,6-dione], the DC50 was 2 nM and the “H1975-clone#28 DTC Dmax (%)” value is reported as 47%.

For the molecule `CCc1cc(Nc2ncc(Br)c(Nc3cnc4cc(F)ccc4c3P(C)(C)=O)n2)c(OC)cc1N1CCC(N2CCN(CCc3cccc4c3n(C)c(=O)n4C3CCC(=O)NC3=O)CC2)CC1` (stereo not shown) [Example 167, 3-(4-(2-(4-(1-(4-((5-bromo-4-((4-(dimethylphosphoryl)-7-fluoroquinolin-3-yl)amino)pyrimidin-2-yl)amino)-2-ethyl-5-methoxyphenyl)piperidin-4-yl)piperazin-1-yl)ethyl)-3-methyl-2-oxo-2,3-dihydro-1H-benzo[d]imidazol-1-yl)piperidine-2,6-dione], the 50% degradation concentration (DC50) was found to be 0.8 nM and the “H1975-clone#28 DTC Dmax (%)” value is 74%.

For the molecule `CCOc1cc(N2CCC(N3CCN(CCc4cccc5c4C(C)(C)C(=O)N5C4CCC(=O)NC4=O)CC3)CC2)c(CC)cc1Nc1ncc(Br)c(Nc2cnc3ccccc3c2P(C)(C)=O)n1` (stereo not shown) [Example 138, 3-(4-(2-(4-(1-(4-((5-bromo-4-((4-(dimethylphosphoryl)quinolin-3-yl)amino)pyrimidin-2-yl)amino)-5-ethoxy-2-ethylphenyl)piperidin-4-yl)piperazin-1-yl)ethyl)-3,3-dimethyl-2-oxoindolin-1-yl)piperidine-2,6-dione], the DC50 came out at 3 nM and the “H1975-clone#28 DTC Dmax (%)” value is reported as 83%.

With `CCc1cc(Nc2ncc(Br)c(Nc3cnc4ccccc4c3P(C)(C)=O)n2)c(OC)cc1N1CCC(N2CCN(CCc3ccc4c(c3)C(C)(C)C(=O)N4C3CCC(=O)NC3=O)CC2)CC1` (stereo not shown) [Example 175, 3-(5-(2-(4-(1-(4-((5-bromo-4-((4-(dimethylphosphoryl)quinolin-3-yl)amino)pyrimidin-2-yl)amino)-2-ethyl-5-methoxyphenyl)piperidin-4-yl)piperazin-1-yl)ethyl)-3,3-dimethyl-2-oxoindolin-1-yl)piperidine-2,6-dione], the DC50 was 5.5 nM and the “H1975-clone#28 DTC Dmax (%)” value is listed as 47%.

As for `CCc1cc(Nc2ncc(Br)c(Nc3cnc4ccccc4c3P(C)(C)=O)n2)c(OC)cc1N1CCC(N2CCN(CCc3cccc4c3oc(=O)n4C3CCC(=O)NC3=O)CC2)CC1` (stereo not shown) [Example 188, 3-(7-(2-(4-(1-(4-((5-bromo-4-((4-(dimethylphosphoryl)quinolin-3-yl)amino)pyrimidin-2-yl)amino)-2-ethyl-5-methoxyphenyl)piperidin-4-yl)piperazin-1-yl)ethyl)-2-oxobenzo[d]oxazol-3(2H)-yl)piperidine-2,6-dione], the DC50 was 0.8 nM and the “H1975-clone#28 DTC Dmax (%)” value is listed as 84%.

For the molecule `CCOc1cc(N2CCC(N3CCN(CCc4cccc5c4n(C)c(=O)n5C4CCC(=O)NC4=O)CC3)CC2)c(CC)cc1Nc1ncc(Br)c(Nc2cnc3ccccc3c2P(C)(C)=O)n1` (stereo not shown) [Example 140, 3-(4-(2-(4-(1-(4-((5-bromo-4-((4-(dimethylphosphoryl)quinolin-3-yl)amino)pyrimidin-2-yl)amino)-5-ethoxy-2-ethylphenyl)piperidin-4-yl)piperazin-1-yl)ethyl)-3-methyl-2-oxo-2,3-dihydro-1H-benzo[d]imidazol-1-yl)piperidine-2,6-dione], the half-maximal degradation concentration (DC50) was 4.4 nM and the “H1975-clone#28 DTC Dmax (%)” value is on record as 84%.

In the case of `CCOc1cc(N2CCC(N3CCN(CCc4ccc5c(c4)oc(=O)n5C4CCC(=O)NC4=O)CC3)CC2)c(CC)cc1Nc1ncc(Br)c(Nc2cnc3ccccc3c2P(C)(C)=O)n1` (stereo not shown) [Example 139, 3-(6-(2-(4-(1-(4-((5-bromo-4-((4-(dimethylphosphoryl)quinolin-3-yl)amino)pyrimidin-2-yl)amino)-5-ethoxy-2-ethylphenyl)piperidin-4-yl)piperazin-1-yl)ethyl)-2-oxobenzo[d]oxazol-3(2H)-yl)piperidine-2,6-dione], the DC50 was determined as 1.5 nM and the “H1975-clone#28 DTC Dmax (%)” value is reported as 75%.

As to `COc1cc(N2CCC(N3CCN(C(=O)C4CN(c5cccc6c5n(C)c(=O)n6C5CCC(=O)NC5=O)C4)CC3)CC2)c(C)cc1Nc1ncc(Br)c(Nc2cnc3ccccc3c2P(C)(C)=O)n1` (stereo not shown) [Example 179, 3-(4-(3-(4-(1-(4-((5-bromo-4-((4-(dimethylphosphoryl)quinolin-3-yl)amino)pyrimidin-2-yl)amino)-5-methoxy-2-methylphenyl)piperidin-4-yl)piperazine-1-carbonyl)azetidin-1-yl)-3-methyl-2-oxo-2,3-dihydro-1H-benzo[d]imidazol-1-yl)piperidine-2,6-dione], the DC50 worked out at 2.6 nM and the “H1975-clone#28 DTC Dmax (%)” value is 54%.

Turning to `CCc1cc(Nc2ncc(Br)c(Nc3cnc4cc(F)ccc4c3P(C)(C)=O)n2)c(OC)cc1N1CCC(N2CCN(CCc3ccc4c(c3)oc(=O)n4C3CCC(=O)NC3=O)CC2)CC1` (stereo not shown) [Example 153, 3-(6-(2-(4-(1-(4-((5-bromo-4-((4-(dimethylphosphoryl)-7-fluoroquinolin-3-yl)amino)pyrimidin-2-yl)amino)-2-ethyl-5-methoxyphenyl)piperidin-4-yl)piperazin-1-yl)ethyl)-2-oxobenzo[d]oxazol-3(2H)-yl)piperidine-2,6-dione], the half-maximal degradation concentration (DC50) was found to be 0.8 nM and the “H1975-clone#28 DTC Dmax (%)” value is listed as 77%.

As to `CCc1cc(Nc2ncc(Br)c(Nc3cnc4ccc(C(F)(F)F)cc4c3P(C)(C)=O)n2)c(OC)cc1N1CCC(N2CCN(CCc3cc(F)c(C4CCC(=O)NC4=O)c(F)c3)CC2)CC1` (stereo not shown) [Example 171, 3-(4-(2-(4-(1-(4-((5-bromo-4-((4-(dimethylphosphoryl)-6-(trifluoromethyl)quinolin-3-yl)amino)pyrimidin-2-yl)amino)-2-ethyl-5-methoxyphenyl)piperidin-4-yl)piperazin-1-yl)ethyl)-2,6-difluorophenyl)piperidine-2,6-dione], the DC50 turned out to be 4.3 nM and the “H1975-clone#28 DTC Dmax (%)” value worked out at 79%.

As for `CCc1cc(Nc2ncc(Br)c(Nc3cnc4ccccc4c3P(C)(C)=O)n2)c(OC)cc1N1CCC(N2CCN(CCc3ccc4c(c3)oc(=O)n4C3CCC(=O)NC3=O)CC2)CC1` (stereo not shown) [Example 132, 3-(6-(2-(4-(1-(4-((5-bromo-4-((4-(dimethylphosphoryl)quinolin-3-yl)amino)pyrimidin-2-yl)amino)-2-ethyl-5-methoxyphenyl)piperidin-4-yl)piperazin-1-yl)ethyl)-2-oxobenzo[d]oxazol-3(2H)-yl)piperidine-2,6-dione], the DC50 is 1 nM and the “H1975-clone#28 DTC Dmax (%)” value stood at 80%.
